Test results from ChEMBL document CHEMBL3046235, “In vitro biological activities of new heterocyclic chalcone derivatives” (Med Chem Res, 2013).
Converted amounts (≈) assume the structure as drawn. The source made the active and inactive calls. The calls are words filed in the database; no cut-off is given here.

Assays:
Candida albicans [1] = assay: Antimicrobial activity against Candida albicans assessed as growth inhibition by disk diffusion method; type: functional
Camelpox virus [2] = assay: Antiviral activity against Camelpox virus infected African green monkey Vero cells assessed as reduction of virus titers at MNTC dose incubated for 24 hr measured after 3 days by TCID50 assay; type: functional, organism-based
Camelpox virus [3] = assay: Antiviral activity against Camelpox virus infected African green monkey Vero cells assessed as inhibition of viral replication at MNTC dose incubated for 24 hr measured after 3 days; type: functional
Candida albicans [4] = assay: Antimicrobial activity against Candida albicans assessed as diameter of growth inhibition zone at 40 ug/ml by disk diffusion method; type: functional; conditions: read-out: DIZ
Aspergillus niger [5] = assay: Antimicrobial activity against Aspergillus niger assessed as growth inhibition by disk diffusion method; type: functional
Vero = assay: Cytotoxicity against Chlorocebus aethiops (African green monkey) Vero cells assessed as change in morphological changes after 4 days by inverted microscopic analysis; type: cell-based; conditions: chlorocebus sabaeus, 96 h
Staphylococcus aureus [6] = assay: Antimicrobial activity against Staphylococcus aureus isolated from infected patient assessed as diameter of growth inhibition zone at 40 ug/ml by disk diffusion method; type: functional; conditions: read-out: DIZ
Bacillus subtilis [7] = assay: Antimicrobial activity against Bacillus subtilis isolated from infected patient assessed as diameter of growth inhibition zone at 40 ug/ml by disk diffusion method; type: functional; conditions: read-out: DIZ
[8] = test system: Radical scavenging activity; assay: Antioxidant activity assessed as DPPH radical scavenging activity at 15 ug/ml after 30 min by spectrophotometric analysis; type: functional
Escherichia coli [9] = assay: Antimicrobial activity against Escherichia coli isolated from infected patient assessed as growth inhibition by disk diffusion method; type: functional
Goatpox virus [10] = assay: Antiviral activity against Goatpox virus infected African green monkey Vero cells assessed as inhibition of viral replication at MNTC dose incubated for 24 hr measured after 6 days; type: functional
Staphylococcus aureus [11] = assay: Antimicrobial activity against Staphylococcus aureus isolated from infected patient assessed as growth inhibition by disk diffusion method; type: functional
Buffalopox virus [12] = assay: Antiviral activity against Buffalopox virus virus infected African green monkey Vero cells assessed as reduction of virus titers at MNTC dose incubated for 24 hr measured after 4 days by TCID50 assay; type: functional, organism-based
Buffalopox virus [13] = assay: Antiviral activity against Buffalopox virus virus infected African green monkey Vero cells assessed as inhibition of viral replication at MNTC dose incubated for 24 hr measured after 4 days; type: functional
Salmonella typhi [14] = assay: Antimicrobial activity against Salmonella enterica subsp. enterica serovar Typhi isolated from infected patient assessed as growth inhibition by disk diffusion method; type: functional
Escherichia coli [15] = assay: Antimicrobial activity against Escherichia coli isolated from infected patient assessed as diameter of growth inhibition zone at 40 ug/ml by disk diffusion method; type: functional; conditions: read-out: DIZ
Goatpox virus [16] = assay: Antiviral activity against Goatpox virus infected African green monkey Vero cells assessed as reduction of virus titers at MNTC dose incubated for 24 hr measured after 6 days by TCID50 assay; type: functional, organism-based
HepG2 [17] = assay: Growth inhibition of Homo sapiens (human) HepG2 cells at 25 to 100 ug/ml after 48 hr by MTT assay; type: functional, cell-based
Bacillus subtilis [18] = assay: Antimicrobial activity against Bacillus subtilis isolated from infected patient assessed as growth inhibition by disk diffusion method; type: functional
HepG2 [19] = assay: Cytotoxicity against Homo sapiens (human) HepG2 cells assessed as inhibition of cell viability by trypan blue exclusion method; type: functional; conditions: read-out: LC50 (the source's name)
Aspergillus niger [20] = assay: Antimicrobial activity against Aspergillus niger assessed as diameter of growth inhibition zone at 40 ug/ml by disk diffusion method; type: functional; conditions: read-out: DIZ
Salmonella typhi [21] = assay: Antimicrobial activity against Salmonella enterica subsp. enterica serovar Typhi isolated from infected patient assessed as diameter of growth inhibition zone at 40 ug/ml by disk diffusion method; type: functional; conditions: read-out: DIZ
HepG2 [22] = assay: Growth inhibition of Homo sapiens (human) HepG2 cells up to 75 ug/ml after 48 hr by MTT assay; type: functional, cell-based
HepG2 [23] = assay: Growth inhibition of Homo sapiens (human) HepG2 cells at 100 ug/ml after 48 hr by MTT assay; type: functional; conditions: HepG2, 48 h, read-out: GI

CCc1ccc(/C=C/C(=O)c2ccsc2)o1
MIC (Candida albicans [1]): 20 µg/mL (≈ 86.1 µM) | inhibition (Camelpox virus [2]): inactive | inhibition (INH) (Camelpox virus [3]): 0% | zone of inhibition at 40 µg/mL (Candida albicans [4]): 25 mm | MIC (Aspergillus niger [5]): 40 µg/mL (≈ 172 µM) | MNTD (Vero): 58.3 µg | zone of inhibition at 40 µg/mL (Staphylococcus aureus [6]): 23 mm | zone of inhibition at 40 µg/mL (Bacillus subtilis [7]): 25 mm | Activity [8]: 31% | MIC (Escherichia coli [9]): 30 µg/mL (≈ 129 µM) | inhibition (INH) (Goatpox virus [10]): 0% | MIC (Staphylococcus aureus [11]): 20 µg/mL (≈ 86.1 µM) | inhibition (Buffalopox virus [12]): inactive | inhibition (INH) (Buffalopox virus [13]): 0% | MIC (Salmonella typhi [14]): 20 µg/mL (≈ 86.1 µM) | zone of inhibition at 40 µg/mL (Escherichia coli [15]): 25 mm | inhibition (Goatpox virus [16]): inactive | growth inhibition (GI) (HepG2 [17]): Active | MIC (Bacillus subtilis [18]): 20 µg/mL (≈ 86.1 µM) | CC50 (HepG2 [19]): 8 µg/mL (≈ 34.4 µM) | zone of inhibition at 40 µg/mL (Aspergillus niger [20]): 23 mm | zone of inhibition at 40 µg/mL (Salmonella typhi [21]): 26 mm

O=C(/C=C/c1ccc(-c2ccccc2)cc1)c1ccsc1
MIC (Candida albicans [1]): 30 µg/mL (≈ 103 µM) | inhibition (Camelpox virus [2]): inactive | inhibition (INH) (Camelpox virus [3]): 0% | zone of inhibition at 40 µg/mL (Candida albicans [4]): 30 mm | MIC (Aspergillus niger [5]): 40 µg/mL (≈ 138 µM) | MNTD (Vero): 7.8 µg | zone of inhibition at 40 µg/mL (Staphylococcus aureus [6]): 17 mm | zone of inhibition at 40 µg/mL (Bacillus subtilis [7]): 18 mm | Activity [8]: 31% | MIC (Escherichia coli [9]): 30 µg/mL (≈ 103 µM) | inhibition (INH) (Goatpox virus [10]): 0% | MIC (Staphylococcus aureus [11]): 30 µg/mL (≈ 103 µM) | inhibition (Buffalopox virus [12]): inactive | inhibition (INH) (Buffalopox virus [13]): 0% | MIC (Salmonella typhi [14]): 30 µg/mL (≈ 103 µM) | zone of inhibition at 40 µg/mL (Escherichia coli [15]): 22 mm | inhibition (Goatpox virus [16]): inactive | growth inhibition (GI) (HepG2 [17]): Active | MIC (Bacillus subtilis [18]): 30 µg/mL (≈ 103 µM) | CC50 (HepG2 [19]): 13 µg/mL (≈ 44.8 µM) | zone of inhibition at 40 µg/mL (Aspergillus niger [20]): 24 mm | zone of inhibition at 40 µg/mL (Salmonella typhi [21]): 15 mm

O=C(/C=C/c1c[nH]c2ccccc12)c1ccsc1
MIC (Candida albicans [1]): 30 µg/mL (≈ 118 µM) | inhibition (Camelpox virus [2]): inactive | inhibition (INH) (Camelpox virus [3]): 0% | zone of inhibition at 40 µg/mL (Candida albicans [4]): 28 mm | MIC (Aspergillus niger [5]): 30 µg/mL (≈ 118 µM) | MNTD (Vero): 1.3 µg | zone of inhibition at 40 µg/mL (Staphylococcus aureus [6]): 19 mm | zone of inhibition at 40 µg/mL (Bacillus subtilis [7]): 16 mm | Activity [8]: 31% | MIC (Escherichia coli [9]): 30 µg/mL (≈ 118 µM) | inhibition (INH) (Goatpox virus [10]): 0% | MIC (Staphylococcus aureus [11]): 30 µg/mL (≈ 118 µM) | inhibition (Buffalopox virus [12]): inactive | inhibition (INH) (Buffalopox virus [13]): 0% | MIC (Salmonella typhi [14]): 30 µg/mL (≈ 118 µM) | zone of inhibition at 40 µg/mL (Escherichia coli [15]): 20 mm | inhibition (Goatpox virus [16]): inactive | MIC (Bacillus subtilis [18]): 40 µg/mL (≈ 158 µM) | CC50 (HepG2 [19]): 36 µg/mL (≈ 142 µM) | zone of inhibition at 40 µg/mL (Aspergillus niger [20]): 24 mm | zone of inhibition at 40 µg/mL (Salmonella typhi [21]): 19 mm

COc1ccc(/C=C/C(=O)c2ccsc2)cc1
MIC (Candida albicans [1]): 30 µg/mL (≈ 123 µM) | inhibition (Camelpox virus [2]): inactive | inhibition (INH) (Camelpox virus [3]): 0% | zone of inhibition at 40 µg/mL (Candida albicans [4]): 25 mm | MIC (Aspergillus niger [5]): 30 µg/mL (≈ 123 µM) | MNTD (Vero): 6.24 µg | zone of inhibition at 40 µg/mL (Staphylococcus aureus [6]): 25 mm | zone of inhibition at 40 µg/mL (Bacillus subtilis [7]): 24 mm | Activity [8]: 31% | MIC (Escherichia coli [9]): 20 µg/mL (≈ 81.9 µM) | inhibition (INH) (Goatpox virus [10]): 0% | MIC (Staphylococcus aureus [11]): 20 µg/mL (≈ 81.9 µM) | inhibition (Buffalopox virus [12]): inactive | inhibition (INH) (Buffalopox virus [13]): 0% | MIC (Salmonella typhi [14]): 40 µg/mL (≈ 164 µM) | zone of inhibition at 40 µg/mL (Escherichia coli [15]): 26 mm | inhibition (Goatpox virus [16]): inactive | growth inhibition (GI) (HepG2 [17]): Active | MIC (Bacillus subtilis [18]): 30 µg/mL (≈ 123 µM) | CC50 (HepG2 [19]): 12 µg/mL (≈ 49.1 µM) | zone of inhibition at 40 µg/mL (Aspergillus niger [20]): 23 mm | zone of inhibition at 40 µg/mL (Salmonella typhi [21]): 24 mm

Cc1cc(C(=O)/C=C/c2ccc[nH]2)c(C)o1
MIC (Candida albicans [1]): 30 µg/mL (≈ 139 µM) | inhibition (Camelpox virus [2]): inactive | inhibition (INH) (Camelpox virus [3]): 0% | zone of inhibition at 40 µg/mL (Candida albicans [4]): 17 mm | MIC (Aspergillus niger [5]): 40 µg/mL (≈ 186 µM) | MNTD (Vero): 25 µg | zone of inhibition at 40 µg/mL (Staphylococcus aureus [6]): 21 mm | zone of inhibition at 40 µg/mL (Bacillus subtilis [7]): 21 mm | Activity [8]: 31% | MIC (Escherichia coli [9]): 40 µg/mL (≈ 186 µM) | inhibition (INH) (Goatpox virus [10]): 0% | MIC (Staphylococcus aureus [11]): 30 µg/mL (≈ 139 µM) | inhibition (Buffalopox virus [12]): inactive | inhibition (INH) (Buffalopox virus [13]): 0% | MIC (Salmonella typhi [14]): 40 µg/mL (≈ 186 µM) | zone of inhibition at 40 µg/mL (Escherichia coli [15]): 18 mm | inhibition (Goatpox virus [16]): inactive | MIC (Bacillus subtilis [18]): 30 µg/mL (≈ 139 µM) | CC50 (HepG2 [19]): 59 µg/mL (≈ 274 µM) | zone of inhibition at 40 µg/mL (Aspergillus niger [20]): 21 mm | zone of inhibition at 40 µg/mL (Salmonella typhi [21]): 19 mm

Cc1cc(C(=O)/C=C/c2ccc(-c3ccccc3)cc2)c(C)o1
MIC (Candida albicans [1]): 20 µg/mL (≈ 66.1 µM) | inhibition (Camelpox virus [2]): inactive | inhibition (INH) (Camelpox virus [3]): 0% | zone of inhibition at 40 µg/mL (Candida albicans [4]): 23 mm | MIC (Aspergillus niger [5]): 20 µg/mL (≈ 66.1 µM) | growth inhibition (GI) (HepG2 [22]): Active | MNTD (Vero): 4.68 µg | zone of inhibition at 40 µg/mL (Staphylococcus aureus [6]): 16 mm | zone of inhibition at 40 µg/mL (Bacillus subtilis [7]): 24 mm | Activity [8]: 31% | MIC (Escherichia coli [9]): 20 µg/mL (≈ 66.1 µM) | inhibition (INH) (Goatpox virus [10]): 0% | MIC (Staphylococcus aureus [11]): 20 µg/mL (≈ 66.1 µM) | inhibition (Buffalopox virus [12]): inactive | inhibition (INH) (Buffalopox virus [13]): 0% | MIC (Salmonella typhi [14]): 30 µg/mL (≈ 99.2 µM) | inhibition of growth at 100 µg/mL (HepG2 [23]): 67% | zone of inhibition at 40 µg/mL (Escherichia coli [15]): 23 mm | inhibition (Goatpox virus [16]): inactive | MIC (Bacillus subtilis [18]): 30 µg/mL (≈ 99.2 µM) | CC50 (HepG2 [19]): 92 µg/mL (≈ 304 µM) | zone of inhibition at 40 µg/mL (Aspergillus niger [20]): 23 mm | zone of inhibition at 40 µg/mL (Salmonella typhi [21]): 22 mm
